Results taken from publication PMC9971447 (Asian Pacific Journal of Cancer Prevention : APJCP, 2022).
Read-outs that look alike come from different tables or passages of the source.

Experiments:
HCT116 = assay: SRB antiproliferation assay, HCT116 colorectal cancer cells; format: cell-based
SW620 [1] = assay: SRB antiproliferation assay, SW620 colorectal cancer cells; format: cell-based; details: read-out: Cytotoxicity (as of %Control) IC50 value, SW620, 72 h incubations, mean ± SD, n = 3
[2] = tested on: RAW 264.7 mouse macrophage cell line (nitric oxide synthase readout); assay: LPS-triggered NO; format: cell-based; details: for antiinflammation potency compared with indomethacin: LPS-triggered inflammation in RAW macrophages, in words
SW620 [3] = details: read-out: IC50 value in SW620 cells; ref Mamdooh et al., 2019; cited from earlier work
T47D [4] = details: read-out: antiproliferative IC50, T47D cell line; ref AlKhalil et al., 2020; cited from earlier work
A375.2S cell line = details: read-out: antiproliferative IC50, A375.2S cell line; ref AlKhalil et al., 2020; cited from earlier work
SW480 = assay: SRB antiproliferation assay, SW480 colorectal cancer cells; format: cell-based
T47D [5] = assay: SRB antiproliferation assay, T47D breast cancer cells; format: cell-based
MCF7 = assay: SRB antiproliferation assay, MCF7 breast cancer cells; format: cell-based
PANC1 = assay: SRB antiproliferation assay, PANC1 pancreatic cells; format: cell-based
[6] = tested on: colorectal cancer cell lines; details: ref Mamdooh et al., 2019; cited from earlier work
CACO2 = assay: SRB antiproliferation assay, CACO2 colorectal cancer cells; details: read-out: Cytotoxicity (as of %Control) IC50 value, CACO2, 72 h incubations, mean ± SD, n = 3
HT29 = assay: SRB antiproliferation assay, HT29 colorectal cancer cells; format: cell-based; details: read-out: Cytotoxicity (as of %Control) IC50 value, HT29, 72 h incubations, mean ± SD, n = 3
[7] = Mus musculus, RAW264.7, 24 h, read-out: NOS- IC50 value, LPS 20 μg/mL, RAW264.7, 24h incubations, mean ± SD, n = 3
[8] = read-out: NOS- IC50 value, LPS 20 μg/mL, RAW264.7, 24h incubations, mean ± SD, n = 3
[9] = Homo sapiens, SW480, 72 h, read-out: Cytotoxicity (as of %Control) IC50 value, SW480, SRB, 72 h incubations, mean ± SD, n = 3
[10] = read-out: Cytotoxicity (as of %Control) IC50 value, T47D, SRB, 72 h incubations, mean ± SD, n = 3
[11] = Homo sapiens, MCF7, 72 h, read-out: Cytotoxicity (as of %Control) IC50 value, MCF7, SRB, 72 h incubations, mean ± SD, n = 3
[12] = Homo sapiens, PANC-1, 72 h, read-out: Cytotoxicity (as of %Control) IC50 value, PANC 1, SRB, 72 h incubations, mean ± SD, n = 3
[13] = read-out: Cytotoxicity (as of %Control) IC50 value, MCF7, SRB, 72 h incubations, mean ± SD, n = 3
[14] = read-out: Cytotoxicity (as of %Control) IC50 value, SW480, SRB, 72 h incubations, mean ± SD, n = 3
[15] = Homo sapiens, T47D, 72 h, read-out: Cytotoxicity (as of %Control) IC50 value, T47D, SRB, 72 h incubations, mean ± SD, n = 3

CC(C)c1c(C(=O)Nc2ccccc2)c(-c2ccccc2)c(-c2ccc(F)cc2)n1CC[C@@H](O)C[C@@H](O)CC(=O)O [Atorvastatin]
IC50 (HCT116; read-out: Cytotoxicity (as of %Control) IC50 value, HCT116, SRB, 72 h incubations, mean ± SD, n = 3): < 50000 nM | IC50 (SW620 [1]): < 50 µM | antiinflammation potency compared with indomethacin [2]: substantially more potent | IC50 [2, 7]: 42 µM | IC50 [2, 8]: 42.8 ± 7.17 µM | IC50 (SW620 [3]): 1.8 nM | IC50 (T47D [4]): 34.6 µM | IC50 (A375.2S cell line): 15.6 nM

COCc1c(C(C)C)nc(C(C)C)c(/C=C/[C@@H](O)C[C@@H](O)CC(=O)O)c1-c1ccc(F)cc1 [Cerivastatin]
IC50 (HCT116; Homo sapiens, HCT-116, 72 h, read-out: Cytotoxicity (as of %Control) IC50 value, HCT116, SRB, 72 h incubations, mean ± SD, n = 3): 2900 nM | IC50 (SW480; [9]): 6 µM | IC50 (T47D [5]; [10]): < 50 µM | IC50 (MCF7; [11]): < 50 µM | IC50 (PANC1; [12]): < 50 µM | NOS- IC50 value ([2]; LPS 20 μg/mL, RAW264.7, 24h incubations, mean ± SD, n = 3): lack and noninhibitory

COc1cccc2c1C(=O)c1c(O)c3c(c(O)c1C2=O)C[C@@](O)(C(=O)CO)C[C@@H]3O[C@H]1C[C@H](N)[C@H](O)[C@H](C)O1 [Doxorubicin]
activity against CRC cell lines (in words) [6]: nanomolar

CC(C)n1c(/C=C/C(O)CC(O)CC(=O)O)c(-c2ccc(F)cc2)c2ccccc21 (stereo not drawn) [Fluvastatin]
IC50 (T47D [5]; [10]): > 50 µM | IC50 (MCF7; [13]): > 50 µM | IC50 (PANC1; [12]): > 50 µM | antiinflammation potency compared with indomethacin [2]: equipotency to indomethacin | IC50 [2, 7]: 110 ± 20.6 µM

COc1ccc2c(c1)c(CC(=O)O)c(C)n2C(=O)c1ccc(Cl)cc1 [Indomethacin]
IC50 [2, 7]: 87 µM | IC50 [2, 8]: 86.5 ± 10.5 µM

CC[C@H](C)C(=O)O[C@H]1C[C@@H](C)C=C2C=C[C@H](C)[C@H](CC[C@@H]3C[C@@H](O)CC(=O)O3)[C@H]21 [Lovastatin]
antiinflammation potency compared with indomethacin [2]: substantially more potent | IC50 [2, 7]: 42 µM | IC50 [2, 8]: 41.6 ± 4.34 µM | IC50 (CACO2): > 100 µM

CC[C@H](C)C(=O)O[C@H]1CCC=C2C=C[C@H](C)[C@H](CC[C@@H]3C[C@@H](O)CC(=O)O3)[C@H]21 [Mevastatin]
IC50 (SW480; [9]): < 50 µM | IC50 (SW480; [14]): 36 µM | IC50 (T47D [5]; [15]): > 50 µM | IC50 (MCF7; [13]): > 50 µM | IC50 (PANC1; [12]): > 50 µM | antiinflammation potency compared with indomethacin [2]: inferior antiinflammation potency to indomethacin | IC50 [2, 7]: 142 ± 17.2 µM

O=C(O)C[C@H](O)C[C@H](O)/C=C/c1c(C2CC2)nc2ccccc2c1-c1ccc(F)cc1 [Pitavastatin]
IC50 (T47D [5]; [10]): > 50 µM | IC50 (MCF7; [11]): > 50 µM | IC50 (PANC1; read-out: Cytotoxicity (as of %Control) IC50 value, PANC 1, SRB, 72 h incubations, mean ± SD, n = 3): > 50 µM | antiinflammation potency compared with indomethacin [2]: equipotency to indomethacin | IC50 [2, 7]: 98.7 ± 1.87 µM

CC[C@H](C)C(=O)O[C@H]1C[C@H](O)C=C2C=C[C@H](C)[C@H](CC[C@@H](O)C[C@@H](O)CC(=O)O)[C@H]21 [Pravastatin]
IC50 (HT29): < 50 µM | IC50 (PANC1; [12]): > 50 µM | antiinflammation potency compared with indomethacin [2]: inferior antiinflammation potency to indomethacin | IC50 [2, 7]: 204 ± 14.1 µM

CC(C)c1nc(N(C)S(C)(=O)=O)nc(-c2ccc(F)cc2)c1/C=C/[C@@H](O)C[C@@H](O)CC(=O)O [Rosuvastatin]
IC50 (SW620 [1]): 15 µM | IC50 (SW480; [14]): 23 µM | IC50 (T47D [5]; [15]): > 50 µM | IC50 (MCF7; [13]): 1.5 µM | IC50 (PANC1; [12]): > 50 µM | antiinflammation potency compared with indomethacin [2]: equipotency to indomethacin | IC50 [2, 7]: 74.2 ± 13.1 µM

CCC(C)(C)C(=O)O[C@H]1C[C@@H](C)C=C2C=C[C@H](C)[C@H](CC[C@@H]3C[C@@H](O)CC(=O)O3)[C@H]21 [Simvastatin]
antiinflammation potency compared with indomethacin [2]: substantially more potent | IC50 [2, 7]: 42 µM | IC50 [2, 8]: 42.5 ± 6.41 µM

O=C(O)c1cn(C2CC2)c2cc(N3CCNCC3)c(F)cc2c1=O [ciprofloxacin]
activity against CRC cell lines (in words) [6]: did not show any activity

CO/N=C1\CN(c2nc3c(cc2F)c(=O)c(C(=O)O)cn3C2CC2)CC1CN (stereo not drawn) [gemifloxacin]
activity against CRC cell lines (in words) [6]: active
